The results in this text go back to patent US12054478B2, “Compositions and methods for inhibiting phenyl triazole MLL1-WDR5 protein-protein interaction” (China Pharmaceutical University, priority 2018, dated 2024).

One data set in a line: Solubility at pH 7.4. As to conditions: aqueous medium at pH 7.4 (water solubility), aqueous buffer. The class given is physicochemical.
Data set [1] has as its target MLL1-WDR5 protein-protein interactions (Homo sapiens, UniProt P61964). Nature of the data set: Inhibition of MLL1-WDR5 protein-protein interaction. The class given is binding.
Data set [2] relates to MV4-11 human acute leukemia monocyte. Nature of the data set: Anti-proliferation on leukemia cells, MV4-11. The class given is cell-based. The following applies: Homo sapiens, MV4-11; MV-411 cells. The method, then: (§1) Anti-proliferation experiments were conducted with leukemia cells with some of the compounds in the present disclosure.
Data set [3] deals with K562 human chronic myeloid leukemia cells. The data set can be described thus: Anti-proliferation on leukemia cells, K562. Format: cell-based. Here is the method:
Anti-proliferation experiments were conducted with leukemia cells with some of the compounds in the present disclosure. Table 3 listed the results of evaluation of the anti-proliferation activities for some of the compounds from this present disclosure conducted with acute leukemia cells, wherein MV4-11 is human acute leukemia monocyte, Molm-13 is human acute myeloid leukemia cells, and K562 is human chronic myeloid leukemia cells.

For data set [4], the system named is Molm-13 human acute myeloid leukemia cells. The data set can be described thus: Anti-proliferation on leukemia cells, Molm-13. The class given is cell-based. As to conditions: Homo sapiens; Molm-13 cells. The method, then:
as §1

Setting [5] is: Table 2, compounds of this present disclosure.
The mark [6] stands for this setting: Table 1, read-out: MLL1-WDR5 PPI inhibition activity.
Setting [7] is: Table 2, compounds of this present disclosure, read-out: MLL1-WDR5 PP1 inhibition activity.
The mark [8] stands for this setting: Table 2, biphenyl comparison compounds.
Setting [9] is: Table 2, biphenyl comparison compounds (Eur. J. Med. Chem. 2016, 124, 480-489), read-out: MLL1-WDR5 PP1 inhibition activity.

≈ marks a conversion by molar mass, not a printed value. Read-outs that look alike come from different tables or passages of the source. A value given as a limit tells only on which side of the number the result lay.

For the compound `COC(=O)c1cn(-c2ccc(N3CCN(C)CC3)c(NC(=O)c3cc(N)c(F)c(C)c3Cl)c2)nn1` [drawing 6], the solubility in “Solubility at pH 7.4” (setting [5]) was 20 µg/mL (≈ 39.8 µM).
Turning to `Cc1c(F)c(N)cc(C(=O)Nc2cc(-n3cc(NC(=O)OC(C)(C)C)nn3)ccc2N2CCN(C)CC2)c1Cl` [Example 12], the IC50 in data set [1] (setting [6]) was less than 0.08 µM. The concentration for 50% growth inhibition (GI50) in data set [2] came to 23.2 ± 3.2 µM.
As to `Cc1c(F)c(N)cc(C(=O)Nc2cc(-n3cc(C(=O)NC4CCOCC4)nn3)ccc2N2CCN(C)CC2)c1Cl` [Example 5, 1-(3-(5-Amino-2-chloro-4-fluoro-3-methylbenzoylamino)-4-(4-methylpiperazin-1-group)phenyl)-N-(tetrahydro-2H-pyran-4-yl)-1H-1,2,3-triazole-4-carboxamide], the GI50 in data set [3] came out at 27.5 ± 2.8 µM.
As for `Cc1c(F)c(N)cc(C(=O)Nc2cc(-n3cc(C(=O)NCCCN)nn3)ccc2N2CCN(C)CC2)c1Cl` [Example 10], the IC50 in data set [1] (setting [6]) was less than 0.01 µM. Moreover, the GI50 in data set [2], in data set [4] and in data set [3] was 13.5 ± 1.2 µM throughout.
As to `Cc1c(F)c(N)cc(C(=O)Nc2cc(-n3cc(C(=O)N(C)C)nn3)ccc2N2CCN(C)CC2)c1Cl` [drawing 8], the solubility in “Solubility at pH 7.4” (setting [5]) was determined as 170 µg/mL (≈ 330 µM).
As for `Cc1c(F)c(N)cc(C(=O)Nc2cc(-n3cc(NC(=O)C4CCNCC4)nn3)ccc2N2CCN(C)CC2)c1Cl` [drawing 18], the IC50 in data set [1] (setting [7]) was found to be 0.0123 µM. The solubility in “Solubility at pH 7.4” (setting [5]) was found to be 1240 µg/mL (≈ 2170 µM).
For the compound `Cc1c(F)c(N)cc(C(=O)Nc2cc(-n3cc(NC(=O)CCO)nn3)ccc2N2CCN(C)CC2)c1Cl` [Example 17, 5-amino-2-chloro-4-fluoro-N-(5-(4-(3-Hydroxypropionylamino)-1H-1,2,3-triazol-1-group)-2-(4-methylpiperazin-1-group)phenyl)-3-methyl benzoylamino], in data set [1] (setting [6]), the IC50 was less than 0.05 µM. Moreover, the GI50 in data set [2] is 10.4 ± 1.1 µM; in data set [4], 7.3 ± 0.8 µM; in data set [3], 21.3 ± 2.4 µM.
Consider `Cc1c(F)c(O)cc(C(=O)Nc2c(N3CCN(C)CC3)ccc(-n3cc(NC(=O)CCN)nn3)c2C)c1Cl` [Example 23], for which the IC50 in data set [1] (setting [6]) is less than 0.05 µM. Further, the GI50 in data set [4] came to 17.9 ± 1.6 µM; in data set [3], 27.7 ± 0.3 µM.
In the case of `Cc1c(F)c(N)cc(C(=O)Nc2cc(-n3cc(N)nn3)ccc2N2CCN(C)CC2)c1Cl` [drawing 14], the IC50 in data set [1] (setting [7]) is 0.0903 µM. The compound also returned a solubility in “Solubility at pH 7.4” (setting [5]) of 110 µg/mL (≈ 240 µM).
As for `Cc1c(F)c(N)cc(C(=O)Nc2cc(-n3ccnn3)ccc2N2CCN(C)CC2)c1Cl` [Example 11, 5-amino-2-chloro-4-fluoro-3-methyl-N-(2-(4-methylpiperazin-1-group)-5-(1H-1,2,3-triazole-1-group)phenyl) benzamide], the GI50 in data set [2], in data set [4] and in data set [3] was 13.5 ± 1.5 µM each time.
As for `Cc1c(F)c(N)cc(C(=O)Nc2cc(-c3ccc(NC(=O)CCCN)cc3)ccc2N2CCN(C)CC2)c1Cl` [drawing 21, reference compound], the concentration in solution in the data set “Solubility at pH 7.4” (setting [8]) (solubility) came to 110 µg/mL (≈ 199 µM).
On the same count and under the same terms, under `COC(=O)c1ccc(-c2ccc(N3CCN(C)CC3)c(NC(=O)c3cc(N)c(F)c(C)c3Cl)c2)cc1` [reference compound] stands 1.9 µg/mL (≈ 3.72 µM).
For the compound `Cc1c(F)c(O)cc(C(=O)Nc2c(N3CCN(C)CC3)ccc(-n3cc(NCC(N)=O)nn3)c2F)c1Cl` [Example 21, N-(3-(4-((2-amino-2-Oxoethyl)amino)-1H-1,2,3-triazol-1-group)-2-fluoro-6-(4-methylpiperazin-1-group)phenyl)-2-chloro-4-fluoro-5-hydroxyl-3-Methyl benzoyl], the IC50 in data set [1] (setting [6]) was less than 0.08 µM. In addition, the 50% growth inhibitory concentration (GI50) in data set [2] stood at 12.7 ± 0.8 µM; in data set [4] it was 7.7 ± 0.9 µM; in data set [3], 10.5 ± 0.8 µM.
Regarding `Cc1c(F)c(N)cc(C(=O)Nc2cc(-n3cc(NC(=O)CCCN)nn3)ccc2N2CCN(C)CC2)c1Cl` [drawing 20], the IC50 in data set [1] (setting [7]) turned out to be 0.0067 µM. Moreover, the concentration in solution in the data set “Solubility at pH 7.4” (setting [5]) (solubility) was 1300 µg/mL (≈ 2400 µM).
With `Cc1c(F)c(N)cc(C(=O)Nc2cc(-c3ccc(NC(=O)C4CCN(C)CC4)cc3)ccc2N2CCN(C)CC2)c1Cl` [reference compound], in the data set “Solubility at pH 7.4” (setting [8]), the solubility worked out at 54 µg/mL (≈ 91 µM).
On to `Cc1c(F)c(N)cc(C(=O)Nc2cc(-n3cc(C(=O)NCCN4CCOCC4)nn3)ccc2N2CCCN(C)CC2)c1Cl` [Example 24, 1-(3-(5-amino-2-chloro-4-fluoro-3-Methylbenzoylamino)-4-(4-methyl-1,4-Diazepane-1-group)phenyl)-N-(2-Morpholineethyl)-1H-1,2,3-triazol-4-formamide], for which the IC50 in data set [1] (setting [6]) was less than 0.05 µM. Moreover, the GI50 was 11.3 ± 0.7 µM in data set [2], 12.9 ± 0.9 µM in data set [4] and 13.5 ± 2.2 µM in data set [3].
The like results for `Cc1c(F)c(N)cc(C(=O)Nc2cc(-n3cc(C(=O)NCCN4CCOCC4)nn3)ccc2N2CCN(C)C(C)C2)c1Cl` (centres unmarked) [Example 25] were, in that order, less than 0.05 µM, 10.9 ± 0.9 µM, 8.5 ± 0.7 µM and 11.3 ± 0.7 µM.
In the case of `Cc1c(F)c(N)cc(C(=O)Nc2cc(-n3ccnn3)ccc2N2CCN(C)CC2)c1Cl` [drawing 12], the IC50 in data set [1] (setting [7]) is 0.0657 µM. The same compound gave a solubility in “Solubility at pH 7.4” (setting [5]) of 30 µg/mL (≈ 67.6 µM).
For `Cc1c(F)c(N)cc(C(=O)Nc2cc(-n3cc(C(=O)N4CCN(C)CC4)nn3)ccc2N2CCN(C)CC2)c1Cl` [Example 8, 5-amino-2-chloro-4-fluoro-3-ethyl-N-(2-(4-methylpiperazin-1-group)-5-(4-(methylpiperazin-1-Carbonyl)-1H-1,-1H-1,2,3-triazole-1-group) Phenyl)-carboxamide], the GI50 in data set [3] was 34.1 ± 1.2 µM.
Regarding `Cc1c(F)c(N)cc(C(=O)Nc2cc(-n3cc(NC(=O)C4CCN(C)CC4)nn3)ccc2N2CCN(C)CC2)c1Cl` [drawing 16], the IC50 in data set [1] (setting [7]) worked out at 0.006 µM. Besides, the solubility in the data set “Solubility at pH 7.4” (setting [5]) is 630 µg/mL (≈ 1080 µM).
On to `Cc1c(F)c(N)cc(C(=O)Nc2cc(-n3cc(N)nn3)ccc2N2CCN(C)CC2)c1Cl` [Example 13, 5-amino-N-(5-(4-amino-1H-1,2,3-triazole-1-group)-2-(4-methylpiperazin-1-group)phenyl)-2-chloro-4-fluoro-3-Methylbenzamide], for which the IC50 in data set [1] (setting [6]) is less than 0.08 µM. Further, the results for the GI50 in data set [2], in data set [4] and in data set [3] were 10.1 ± 1.3 µM, 9.2 ± 1.4 µM and 10.5 ± 2 µM, respectively.
With `Cc1c(F)c(N)cc(C(=O)Nc2cc(-c3ccc(N)cc3)ccc2N2CCN(C)CC2)c1Cl` [drawing 15, reference compound], the IC50 in data set [1] (setting [9]) worked out at 0.0887 µM. Also, the concentration in solution in “Solubility at pH 7.4” (setting [8]) (solubility) was 9.5 µg/mL (≈ 20.3 µM).
The compound `Cc1c(F)c(N)cc(C(=O)Nc2cc(-c3ccc(C(=O)N(C)C)cc3)ccc2N2CCN(C)CC2)c1Cl` [reference compound] returned a solubility in “Solubility at pH 7.4” (setting [8]) of 21 µg/mL (≈ 40.1 µM).
`Cc1c(F)c(N)cc(C(=O)Nc2cc(-n3cc(C(=O)N(C)C)nn3)ccc2N2CCN(C)CC2)c1Cl` [Example 3, 1-(3-(5-Amino-2-chloro-4-fluoro-3-methylbenzoylamino)-4-(4-methylpiperazin-1-group)phenyl)-N, N-dimethyl-1H-1,2,3 triazole-4-carboxamide]: the results for the concentration for 50% growth inhibition (GI50) in data set [2], in data set [4] and in data set [3] were 44.6 ± 1.3 µM, 22.8 ± 5.5 µM and greater than 100 µM, respectively.
For `Cc1c(F)c(N)cc(C(=O)Nc2cc(-n3cc(NC(=O)C4CCN(C)CC4)nn3)ccc2N2CCN(C)CC2)c1Cl` [Example 14], the IC50 in data set [1] (setting [6]) is less than 0.01 µM. Besides, the GI50 came to 9.5 ± 1 µM in data set [2], 11 ± 2 µM in data set [4] and 14.1 ± 1.3 µM in data set [3].
As for `CCOc1cn(-c2ccc(N3CCN(C)CC3)c(NC(=O)c3cc(N)c(F)c(C)c3Cl)c2F)nn1` [Example 20], the GI50 turned out to be 8.6 ± 0.6 µM in data set [2], 10.1 ± 1.3 µM in data set [4] and 10.5 ± 2 µM in data set [3].
Take `Cc1c(F)c(N)cc(C(=O)Nc2cc(-n3cc(C(=O)NCCN4CCOCC4)nn3)ccc2N2CCN(C)CC2)c1Cl` [Example 9]: halving of growth in data set [3] (GI50) required 35.8 ± 2.7 µM.
For the compound `Cc1c(F)c(N)cc(C(=O)Nc2cc(-n3cc(NC(=O)C4CCNCC4)nn3)ccc2N2CCN(C)CC2)c1Cl` [Example 15, N-(1-(3-(5-amino-2-chloro-4-fluoro-3-Methylbenzoylamino)-4-(4-methylpiperazingroup)phenyl)-1H-1,2,3-Triazopyridine-4-group) Piperidine-4-formamide], the IC50 in data set [1] (setting [6]) was less than 0.01 µM. Also, the concentration for 50% growth inhibition (GI50) was determined as 14.3 ± 1.7 µM in data set [2], 18.5 ± 1.9 µM in data set [4] and 12.9 ± 0.2 µM in data set [3].
Take `Cc1c(F)c(N)cc(C(=O)Nc2cc(-n3cc(C(=O)N4CCOCC4)nn3)ccc2N2CCN(C)CC2)c1Cl` [drawing 10]: the solubility in the data set “Solubility at pH 7.4” (setting [5]) is 200 µg/mL (≈ 359 µM).
On to `Cc1c(F)c(N)cc(C(=O)Nc2cc(-n3cc(CCN(C)C)nn3)ccc2N2CCN(C)CC2)c1Cl` [Example 19, 5-amino-2-chloro-N-(5-(4-(2-(Dimethylamino)ethyl)-1H-1,2,3-triazol-1-group)-2-(4-methylpiperazin-1-groupgroup)phenyl)-4-fluoro-3-Methyl benzoyl], for which the IC50 in data set [1] (setting [6]) is less than 0.05 µM. Further, the 50% growth inhibitory concentration (GI50) came to 13.7 ± 1.4 µM in data set [2], 16.8 ± 2 µM in data set [4] and 13.5 ± 1.2 µM in data set [3].
For `Cc1c(F)c(N)cc(C(=O)Nc2cc(-c3ccc(NC(=O)C4CCNCC4)cc3)ccc2N2CCN(C)CC2)c1Cl` [reference compound], the IC50 in data set [1] (setting [9]) was found to be 0.0085 µM. Moreover, the concentration in solution in the data set “Solubility at pH 7.4” (setting [8]) (solubility) was 125 µg/mL (≈ 216 µM).
`Cc1c(F)c(N)cc(C(=O)Nc2cc(-c3ccc(C(=O)N4CCOCC4)cc3)ccc2N2CCN(C)CC2)c1Cl` [reference compound] gave a solubility in “Solubility at pH 7.4” (setting [8]) of 27 µg/mL (≈ 47.7 µM).
`Cc1c(F)c(N)cc(C(=O)Nc2cc(-c3ccccc3)ccc2N2CCN(C)CC2)c1Cl` [reference compound]: the IC50 in data set [1] (setting [9]) turned out to be 0.0479 µM. In “Solubility at pH 7.4” (setting [8]), this compound returned a solubility of 3.1 µg/mL (≈ 6.84 µM).

By solubility is commonly meant how much of the substance goes into solution per volume. What is called GI50 is the concentration at which growth is held to half of that of the control.
